From ChEMBL document CHEMBL1152175, “Synthesis, tubulin assembly, and antiproliferative activity against MCF7 and NCI/ADR-RES cancer cells of 10-O-acetyl-5'-hydroxybutitaxel” (2008)

Assays:
NCI/ADR-RES = experiment: Cytotoxicity against human NCI/ADR-RES cells; assay type: functional; settings: read-out: ED50 (the source's name)
[1] = Inhibition of tubulin assembly
MCF7 = experiment: Cytotoxicity against human MCF7 cells; assay type: functional; settings: read-out: ED50 (the source's name)

SMILES	EC50 (NCI/ADR-RES) [nM]	ED50 [1] [nM]	EC50 (MCF7) [nM]
CC(=O)O[C@H]1C(=O)[C@@]2(C)[C@H]([C@H](OC(=O)c3ccccc3)[C@]3(O)C[C@H](OC(=O)[C@H](O)[C@@H](NC(=O)c4ccccc4)c4ccccc4)C(C)=C1C3(C)C)[C@]1(OC(C)=O)CO[C@@H]1C[C@@H]2O [PACLITAXEL]	2000	1200	2.1
CC(=O)O[C@H]1C(=O)[C@@]2(C)[C@H]([C@H](OC(=O)c3ccccc3)[C@]3(O)C[C@H](OC(=O)[C@H](O)[C@@H](NC(=O)OC(C)(C)C)C(C)(C)CO)C(C)=C1C3(C)C)[C@]1(OC(C)=O)CO[C@@H]1C[C@@H]2O	12500	2200	560
